From patent publication US20240366589A1, “NHE3-BINDING COMPOUNDS AND METHODS FOR INHIBITING PHOSPHATE TRANSPORT” (Ardelyx, Inc., priority 2013, published 2024)

Legend:
Rat NHE3 = target: T1, Rat NHE3 (Rattus norvegicus, UniProt P26433); test: Cell-based NHE3 activity under prompt conditions (OK cells, BCECF pH recovery), rat NHE3; conditions: prompt conditions; for IC50: read-out: Prompt Rat NHE3 pIC50 (converted)
T1 construct: expressed in transfected cells; host or cells: Opossum kidney (OK) cells (ATCC), electroporation
T1 sequence (P26433 29-831): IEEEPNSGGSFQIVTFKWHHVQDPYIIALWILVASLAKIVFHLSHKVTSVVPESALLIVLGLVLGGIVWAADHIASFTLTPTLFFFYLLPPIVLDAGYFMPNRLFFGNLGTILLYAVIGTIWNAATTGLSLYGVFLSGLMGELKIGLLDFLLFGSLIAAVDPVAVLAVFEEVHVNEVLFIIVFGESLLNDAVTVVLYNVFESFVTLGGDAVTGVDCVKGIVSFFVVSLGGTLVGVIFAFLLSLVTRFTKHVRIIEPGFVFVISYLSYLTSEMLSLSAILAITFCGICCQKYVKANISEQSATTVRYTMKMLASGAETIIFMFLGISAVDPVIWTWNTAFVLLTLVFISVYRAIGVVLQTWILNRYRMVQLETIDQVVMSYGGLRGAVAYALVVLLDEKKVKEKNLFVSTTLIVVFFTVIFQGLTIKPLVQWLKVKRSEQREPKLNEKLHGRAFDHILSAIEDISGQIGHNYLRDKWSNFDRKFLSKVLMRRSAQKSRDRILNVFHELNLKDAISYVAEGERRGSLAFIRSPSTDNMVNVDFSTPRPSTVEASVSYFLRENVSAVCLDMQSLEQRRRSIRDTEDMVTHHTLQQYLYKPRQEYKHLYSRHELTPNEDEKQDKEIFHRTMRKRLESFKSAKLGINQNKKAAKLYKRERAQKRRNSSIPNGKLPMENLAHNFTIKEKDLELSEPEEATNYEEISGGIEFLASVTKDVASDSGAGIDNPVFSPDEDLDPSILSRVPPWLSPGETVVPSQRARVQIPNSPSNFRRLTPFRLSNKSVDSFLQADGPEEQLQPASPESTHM
Outline: (§1)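 OK cells electroporated with rat or human NHE3 were loaded with 5 μM BCECF-AM in NH4Cl-HEPES (pH 7.4) for 30 min at room temperature, then acid-loaded 10 min in Na+-free choline-HEPES.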

[1] = test system: absorption of sodium from the intestinal lumen; test: Fecal form score (FFS) 16 h after oral dose in rats; assay type: in vivo, rat; conditions: oral gavage, 16 h post-dose, scale 1-5
Outline: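 Eight-week-old Sprague-Dawley rats (n=6) dosed by oral gavage with compound or water vehicle between 4 and 5 PM, then housed in metabolic cages with food and water ad libitum. At 16 h, fecal form scored 1 (normal pellet) to 5 (liquid streams) by two observers; group mean reported.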

[2] = test system: absorption of sodium from the intestinal lumen; test: Inhibition of intestinal sodium absorption: urinary sodium (uNa) 16 h after single oral dose in rats; assay type: in vivo, rat; conditions: oral gavage, 16 h post-dose
Outline: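 Eight-week-old Sprague-Dawley rats (n=6) given single oral gavage of compound or water vehicle in the late afternoon, then kept in metabolic cages with chow and water ad libitum. Urine collected over 16 h; sodium quantified by ion chromatography and expressed as % of vehicle mean, compared by one-way ANOVA with Dunnett's test.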

Human NHE3 = target: T2, Human NHE3 (Homo sapiens, UniProt P48764); test: Cell-based NHE3 activity under prompt conditions (OK cells, BCECF pH recovery), human NHE3; conditions: prompt conditions
T2 construct: expressed in transfected cells; host or cells: Opossum kidney (OK) cells (ATCC), electroporation
T2 sequence (P48764 26-834): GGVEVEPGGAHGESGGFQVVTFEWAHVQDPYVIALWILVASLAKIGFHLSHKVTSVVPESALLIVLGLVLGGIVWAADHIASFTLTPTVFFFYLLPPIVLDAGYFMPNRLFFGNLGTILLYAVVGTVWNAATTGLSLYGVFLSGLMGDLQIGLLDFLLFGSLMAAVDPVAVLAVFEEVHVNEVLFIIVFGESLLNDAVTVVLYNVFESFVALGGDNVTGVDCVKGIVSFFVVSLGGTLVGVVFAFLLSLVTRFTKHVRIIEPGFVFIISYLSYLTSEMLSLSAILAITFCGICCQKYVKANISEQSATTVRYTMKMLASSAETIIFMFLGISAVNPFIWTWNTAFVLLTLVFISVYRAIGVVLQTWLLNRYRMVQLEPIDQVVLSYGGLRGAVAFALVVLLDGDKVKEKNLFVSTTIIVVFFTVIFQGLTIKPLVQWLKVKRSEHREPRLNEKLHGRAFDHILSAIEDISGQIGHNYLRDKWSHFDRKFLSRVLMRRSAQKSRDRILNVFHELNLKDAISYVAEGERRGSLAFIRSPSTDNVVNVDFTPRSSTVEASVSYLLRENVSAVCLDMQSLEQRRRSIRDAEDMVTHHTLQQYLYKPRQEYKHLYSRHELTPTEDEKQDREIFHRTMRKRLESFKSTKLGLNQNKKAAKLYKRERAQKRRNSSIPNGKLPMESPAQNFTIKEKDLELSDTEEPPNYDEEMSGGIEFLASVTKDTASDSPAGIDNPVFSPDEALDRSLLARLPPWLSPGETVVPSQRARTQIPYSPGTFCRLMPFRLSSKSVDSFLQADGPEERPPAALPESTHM
Outline: as §1

[3] = test system: phosphorus and calcium levels in the urine of rats; test: Urinary excretion of phosphate and calcium in rats (16 h overnight urine); assay type: in vivo, rat; conditions: rats, oral gavage, 16 h post-dose

Compound | Prompt Rat NHE3 pIC50 (Rat NHE3) | Fecal Form Score average ([1]; dose 1 mg/kg) | Fecal Form Score average ([1]; dose 3 mg/kg) | Fecal Form Score average ([1]; dose 10 mg/kg) | Urine Na % of control ([2]; dose 1 mg/kg) [%] | Urine Na % of control ([2]; dose 3 mg/kg) [%] | Urine Na % of control ([2]; dose 10 mg/kg) [%] | Prompt Human NHE3 pIC50 (Human NHE3) | Urine P % of control ([3]; dose 1 mg/kg) [%] | Urine P % of control ([3]; dose 3 mg/kg) [%] | Urine P % of control ([3]; dose 10 mg/kg) [%] | IC50 (Rat NHE3) [nM]
CN1Cc2c(Cl)cc(Cl)cc2[C@H](c2cccc(S(=O)(=O)NCCOCCOCCOCCNC(=O)CC(O)(CC(=O)NCCOCCOCCOCCNS(=O)(=O)c3cccc([C@@H]4CN(C)Cc5c(Cl)cc(Cl)cc54)c3)C(=O)NCCOCCOCCOCCNS(=O)(=O)c3cccc([C@@H]4CN(C)Cc5c(Cl)cc(Cl)cc54)c3)c2)C1 [compound 61] | 7.00 | 1 | 1 | 3 | 93 | 50 | 21 | 7.80 | 96 | 70 | 67 | 
NCCOCCOCCNS(=O)(=O)c1ccc(O[C@H]2c3cc(Cl)cc(Cl)c3C[C@@H]2N2CCCCC2)cc1 [compound 62] | <5.00 |  |  | 1 |  |  | 121 | 7.25 |  |  | 77 | 
CN1Cc2c(Cl)cc(Cl)cc2[C@H](c2cccc(S(=O)(=O)NCCOCCOCCOCCNC(=O)NCCCN(CCCNC(=O)NCCOCCOCCOCCNS(=O)(=O)c3cccc([C@@H]4CN(C)Cc5c(Cl)cc(Cl)cc54)c3)CCCNC(=O)NCCOCCOCCOCCNS(=O)(=O)c3cccc([C@@H]4CN(C)Cc5c(Cl)cc(Cl)cc54)c3)c2)C1 [compound 64] | 7.40 |  |  | 1 |  |  | 34 | 8.20 |  |  | 66 | 
O=C(O)CN(CCN(CC(=O)O)CC(=O)NCCOCCOCCNS(=O)(=O)c1ccc(O[C@H]2c3ccccc3C[C@@H]2N2CCCCC2)cc1)CC(=O)NCCOCCOCCNS(=O)(=O)c1ccc(O[C@H]2c3ccccc3C[C@@H]2N2CCCCC2)cc1 [compound 65] |  |  |  | 1 |  |  | 93 | 8.00 |  |  | 85 | 1.41
O=C(NCCCCNC(=O)NCCOCCOCCNS(=O)(=O)c1ccc(O[C@H]2c3ccccc3C[C@@H]2N2CCCCC2)cc1)NCCOCCOCCNS(=O)(=O)c1ccc(O[C@H]2c3ccccc3C[C@@H]2N2CCCCC2)cc1 [compound 66] |  |  |  | 1 |  |  | 35 | 8.35 |  |  | 30 | 4.47
CN1Cc2c(Cl)cc(Cl)cc2[C@H](c2cccc(S(=O)(=O)NCCOCCOCCOCCNC(=O)CN(CCN(CC(=O)O)CC(=O)NCCOCCOCCOCCNS(=O)(=O)c3cccc([C@@H]4CN(C)Cc5c(Cl)cc(Cl)cc54)c3)CC(=O)O)c2)C1 [compound 67] | 8.00 |  |  | 2 |  |  | 4 | 8.70 |  |  | 67 | 
O=C(NCCCCNC(=O)NCCOCCOCCNS(=O)(=O)c1ccc(O[C@H]2c3cc(Cl)cc(Cl)c3C[C@@H]2N2CCCCC2)cc1)NCCOCCOCCNS(=O)(=O)c1ccc(O[C@H]2c3cc(Cl)cc(Cl)c3C[C@@H]2N2CCCCC2)cc1 [compound 68] | <5.00 |  |  | 1 |  |  | 70 | <5.00 |  |  | 97 | 
CN1Cc2c(Cl)cc(Cl)cc2[C@H](c2cccc(S(=O)(=O)NCCOCCOCCOCCNC(=O)CN3CCN(c4nc(N5CCN(CC(=O)NCCOCCOCCOCCNS(=O)(=O)c6cccc([C@@H]7CN(C)Cc8c(Cl)cc(Cl)cc87)c6)CC5)nc(N5CCN(CC(=O)NCCOCCOCCOCCNS(=O)(=O)c6cccc([C@@H]7CN(C)Cc8c(Cl)cc(Cl)cc87)c6)CC5)n4)CC3)c2)C1 [compound 69] | 6.60 |  |  | 1 |  |  | 82 | 6.70 |  |  | 78 | 
CN1Cc2c(Cl)cc(Cl)cc2[C@H](c2cccc(S(=O)(=O)NCCOCCOCCOCCNC(=O)NCCN3CCN(c4nc(N5CCN(CCNC(=O)NCCOCCOCCOCCNS(=O)(=O)c6cccc([C@@H]7CN(C)Cc8c(Cl)cc(Cl)cc87)c6)CC5)nc(N5CCN(CCNC(=O)NCCOCCOCCOCCNS(=O)(=O)c6cccc([C@@H]7CN(C)Cc8c(Cl)cc(Cl)cc87)c6)CC5)n4)CC3)c2)C1 [compound 70] | 6.70 |  |  | 1 |  |  | 96 | 7.20 |  |  | 83 | 
CN1Cc2c(Cl)cc(Cl)cc2[C@H](c2cccc(S(=O)(=O)NCCOCCOCCOCCNC(=O)CN(CC(=O)NCCOCCOCCOCCNS(=O)(=O)c3cccc([C@@H]4CN(C)Cc5c(Cl)cc(Cl)cc54)c3)[C@@H]3CCCC[C@H]3N(CC(=O)NCCOCCOCCOCCNS(=O)(=O)c3cccc([C@@H]4CN(C)Cc5c(Cl)cc(Cl)cc54)c3)CC(=O)NCCOCCOCCOCNS(=O)(=O)c3cccc([C@@H]4CN(C)Cc5c(Cl)cc(Cl)cc54)c3)c2)C1 [compound 71] | 6.50 |  |  | 1 |  |  | 80 | 7.00 |  |  | 40 | 
O=C(NCCCCNC(=O)NCCOCCOCCOCCNS(=O)(=O)c1ccc(O[C@H]2c3ccccc3C[C@@H]2N2CCCCC2)cc1)NCCOCCOCCOCCNS(=O)(=O)c1ccc(O[C@H]2c3ccccc3C[C@@H]2N2CCCCC2)cc1 [compound 72] |  | 1 | 2 | 1 | 82 | 74 | 33 | 8.25 | 99 | 115 | 43 | 5.01
CN1Cc2c(Cl)cc(Cl)cc2[C@H](c2cccc(S(=O)(=O)NCCOCCOCCOCCn3cc(CN(Cc4cn(CCOCCOCCOCCNS(=O)(=O)c5cccc([C@@H]6CN(C)Cc7c(Cl)cc(Cl)cc76)c5)nn4)Cc4cnnn4CCOCCOCCOCCNS(=O)(=O)c4cccc([C@@H]5CN(C)Cc6c(Cl)cc(Cl)cc65)c4)nn3)c2)C1 [compound 73] | 5.30 |  |  | 2 |  |  | 74 | 6.30 |  |  | 49 | 
CN1Cc2c(Cl)cc(Cl)cc2[C@H](c2cccc(S(=O)(=O)NCCOCCOCCNC(=O)CN(CC(=O)NCCOCCOCCNS(=O)(=O)c3cccc([C@@H]4CN(C)Cc5c(Cl)cc(Cl)cc54)c3)CC(=O)NCCOCCOCCNS(=O)(=O)c3cccc([C@@H]4CN(C)Cc5c(Cl)cc(Cl)cc54)c3)c2)C1 [compound 74] | 6.30 |  |  | 3 |  |  | 30 | 6.80 |  |  | 44 | 
